Like-named read-outs stand apart in the source and are kept apart here.
Experiments:
Assay type in all cases: cell-based
[1] = system: channels containing SUR1; experiment: Thallium flux, Kir6.1 or Kir6.2 co-expressed with SUR1 in transfected HEK-293 cells; settings: 3 µM, Fig. 4D
Excerpt: The pcDNA3.1-SUR2B plasmid was generously provided by Dr. Colin Nichols (Washington University). The pcDNA5/TO-Kir6.1 plasmid was synthesized by GenScript. Stably transfected tetracycline-regulated expression human embryonic kidney-293 (T-Rex-HEK293) cells expressing both plasmids were generated by cotransfecting cells with Lipofectamine LTX followed by antibiotic selection and clonal selection using the thallium flux assay described below. Monoclonal lines expressing robust pinacidil-activated thallium flux were selected for high KATP channel activity. T-Rex-HEK293 cells expressing Kir6.2/SUR1 were created as described previously ([Raphemot et al., 2014]). The cell culture media contained Dulbecco’s modified Eagle’s medium (Gibco, 11965-092) supplied with heat-inactivated FBS (bio-techne, Minneapolis, MN S11150H,10%), Blasticidine HCl (Gibco, A11139-03, 10 ug/mL), Penicillin-Streptomycin (Gibco, 15140-122, 2 mM), G418 Sulfate (CORNING, Corning, NY, 30-234-CR, 1 mg/mL), and Hygromycin B (Invitrogen, Carlsbad, CA, 10687-010, 250 ug/mL). […]
Quantitative thallium flux assays of Kir6.1/SUR2B activity were performed essentially as described previously for Kir6.2/SUR1 ([Raphemot et al., 2014]; [Kharade et al., 2019]). […] Dye-loaded cells were washed with assay buffer and transferred to a Panoptic Kinetic Imaging Plate Reader (Wavefront Bioscience, Franklin, TN). […]

[2] = biological target: T1, Kir4.1 (Homo sapiens, UniProt P78508); experiment: Thallium flux selectivity assay Kir4.1
T1 construct: expressed in transfected cells
T1 sequence (P78508 1-379): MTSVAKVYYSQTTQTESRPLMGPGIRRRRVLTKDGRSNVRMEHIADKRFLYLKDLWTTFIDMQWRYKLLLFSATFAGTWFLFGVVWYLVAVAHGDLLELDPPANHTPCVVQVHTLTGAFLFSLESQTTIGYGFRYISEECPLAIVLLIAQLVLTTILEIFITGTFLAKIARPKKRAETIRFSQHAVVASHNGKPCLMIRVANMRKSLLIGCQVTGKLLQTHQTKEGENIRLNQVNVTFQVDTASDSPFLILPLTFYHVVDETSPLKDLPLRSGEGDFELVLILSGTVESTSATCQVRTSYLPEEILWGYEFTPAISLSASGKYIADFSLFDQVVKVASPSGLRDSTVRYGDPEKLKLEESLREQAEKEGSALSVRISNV
Description: (§1) Quantitative thallium flux assays of Kir6.1/SUR2B activity were performed essentially as described previously for Kir6.2/SUR1 ([Raphemot et al., 2014]; [Kharade et al., 2019]). Stable T-Rex-HEK293-Kir6.1/SUR2B cells or transiently transfected HEK293T cells were plated in polyamine-coated, clear-bottomed, black-walled 384-well plates and were cultured (37°C/5% CO2) overnight in Dulbecco’s modified Eagle’s medium (Gibco, Carlsbad, CA, 11995-065) containing 10% FBS (2 mM Penicillin-Streptomycin). The following day, cells were washed with assay buffer (i.e., Hanks’ balanced salt solution/20 mM HEPES) and loaded for 1 hour with thallium sensor dye Brilliant Thallium (Ion Bioscience, San Marcos, TX) at room temperature. Dye-loaded cells were washed with assay buffer and transferred to a Panoptic Kinetic Imaging Plate Reader (Wavefront Bioscience, Franklin, TN). Control and test compound treatments were for 4 minutes prior to adding 0.5 mM chloride-free thallium stimulus buffer (Ion Bioscience) to initiate thallium flux. […] Selectivity assays against other Kir channels were performed essentially as described previously ([Kharade et al., 2018]; [McClenahan et al., 2022]).

[3] = biological target: T2, Kir6.1/SUR2B (Homo sapiens, UniProt O60706); experiment: Thallium flux assay of Kir6.1/SUR2B in HEK293 cells
T2 construct: expressed in transfected cells; also transiently transfected HEK293T
Excerpt: The pcDNA3.1-SUR2B plasmid was generously provided by Dr. Colin Nichols (Washington University). […] Stably transfected tetracycline-regulated expression human embryonic kidney-293 (T-Rex-HEK293) cells expressing both plasmids were generated by cotransfecting cells with Lipofectamine LTX followed by antibiotic selection and clonal selection using the thallium flux assay described below. […] The cell culture media contained Dulbecco's modified Eagle's medium (Gibco, 11965-092) supplied with heat-inactivated FBS (bio-techne, Minneapolis, MN […],10%), Blasticidine HCl (Gibco, A11139-03, 10 ug/mL), Penicillin-Streptomycin (Gibco, 15140-122, 2 mM), G418 Sulfate (CORNING, Corning, NY, 30-234-CR, 1 mg/mL), and Hygromycin B (Invitrogen, Carlsbad, CA, 10687-010, 250 ug/mL). For selectivity assays, HEK293T cells were cotransfected with Kir6.x and SURX with Lipofectamine LTX and incubated for 48 hours before thallium flux assays. […] [[…] et al., 2019]). […] Dye-loaded cells were washed with assay buffer and transferred to a Panoptic Kinetic Imaging Plate Reader (Wavefront Bioscience, Franklin, TN). Control and test compound treatments were for 4 minutes prior to adding 0.5 mM chloride-free thallium stimulus buffer (Ion Bioscience) to initiate thallium flux. […] Selectivity assays against other Kir channels were performed essentially as described previously ([[…] et al., 2018]; [[…] al., 2022]). […] Data were acquired using Panoptic Software, Waveguide (Wavefront Biosciences). Raw fluorescence values were imported for analysis into custom software (VICB, Vanderbilt University). Fluorescence versus time values for each well were normalized to the initial fluorescence value [F/F0]. […] CRC data were plotted in GraphPad Prism (GraphPad Software, San Diego, CA) and fitted with a four-parameter logistic model to determine IC50 values for rank-ordering hit potency.

[4] = biological target: T3, Kir2.2 (Homo sapiens, UniProt Q14500); experiment: Thallium flux selectivity assay Kir2.2
T3 construct: expressed in transfected cells
T3 sequence (Q14500 1-433): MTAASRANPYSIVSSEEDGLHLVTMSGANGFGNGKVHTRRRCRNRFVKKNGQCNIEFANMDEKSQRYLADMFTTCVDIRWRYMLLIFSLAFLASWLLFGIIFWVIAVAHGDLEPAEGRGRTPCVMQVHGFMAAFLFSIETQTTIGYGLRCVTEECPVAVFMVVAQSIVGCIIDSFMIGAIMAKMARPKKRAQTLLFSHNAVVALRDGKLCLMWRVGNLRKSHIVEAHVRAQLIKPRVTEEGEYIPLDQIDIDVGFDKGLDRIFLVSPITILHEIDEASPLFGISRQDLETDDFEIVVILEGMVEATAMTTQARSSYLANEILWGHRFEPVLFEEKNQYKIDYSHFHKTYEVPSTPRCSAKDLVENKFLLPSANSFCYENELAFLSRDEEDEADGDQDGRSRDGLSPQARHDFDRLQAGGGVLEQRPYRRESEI
Description: as §1

[5] = system: nine other members of the Kir channel family; experiment: Thallium assays, panel of nine other members of the Kir channel family; settings: read-out: IC50 against panel of nine other Kir channel family members
Description: as §1

T2 sequence (O60706 1-1549 isoform O60706-2, species assumed): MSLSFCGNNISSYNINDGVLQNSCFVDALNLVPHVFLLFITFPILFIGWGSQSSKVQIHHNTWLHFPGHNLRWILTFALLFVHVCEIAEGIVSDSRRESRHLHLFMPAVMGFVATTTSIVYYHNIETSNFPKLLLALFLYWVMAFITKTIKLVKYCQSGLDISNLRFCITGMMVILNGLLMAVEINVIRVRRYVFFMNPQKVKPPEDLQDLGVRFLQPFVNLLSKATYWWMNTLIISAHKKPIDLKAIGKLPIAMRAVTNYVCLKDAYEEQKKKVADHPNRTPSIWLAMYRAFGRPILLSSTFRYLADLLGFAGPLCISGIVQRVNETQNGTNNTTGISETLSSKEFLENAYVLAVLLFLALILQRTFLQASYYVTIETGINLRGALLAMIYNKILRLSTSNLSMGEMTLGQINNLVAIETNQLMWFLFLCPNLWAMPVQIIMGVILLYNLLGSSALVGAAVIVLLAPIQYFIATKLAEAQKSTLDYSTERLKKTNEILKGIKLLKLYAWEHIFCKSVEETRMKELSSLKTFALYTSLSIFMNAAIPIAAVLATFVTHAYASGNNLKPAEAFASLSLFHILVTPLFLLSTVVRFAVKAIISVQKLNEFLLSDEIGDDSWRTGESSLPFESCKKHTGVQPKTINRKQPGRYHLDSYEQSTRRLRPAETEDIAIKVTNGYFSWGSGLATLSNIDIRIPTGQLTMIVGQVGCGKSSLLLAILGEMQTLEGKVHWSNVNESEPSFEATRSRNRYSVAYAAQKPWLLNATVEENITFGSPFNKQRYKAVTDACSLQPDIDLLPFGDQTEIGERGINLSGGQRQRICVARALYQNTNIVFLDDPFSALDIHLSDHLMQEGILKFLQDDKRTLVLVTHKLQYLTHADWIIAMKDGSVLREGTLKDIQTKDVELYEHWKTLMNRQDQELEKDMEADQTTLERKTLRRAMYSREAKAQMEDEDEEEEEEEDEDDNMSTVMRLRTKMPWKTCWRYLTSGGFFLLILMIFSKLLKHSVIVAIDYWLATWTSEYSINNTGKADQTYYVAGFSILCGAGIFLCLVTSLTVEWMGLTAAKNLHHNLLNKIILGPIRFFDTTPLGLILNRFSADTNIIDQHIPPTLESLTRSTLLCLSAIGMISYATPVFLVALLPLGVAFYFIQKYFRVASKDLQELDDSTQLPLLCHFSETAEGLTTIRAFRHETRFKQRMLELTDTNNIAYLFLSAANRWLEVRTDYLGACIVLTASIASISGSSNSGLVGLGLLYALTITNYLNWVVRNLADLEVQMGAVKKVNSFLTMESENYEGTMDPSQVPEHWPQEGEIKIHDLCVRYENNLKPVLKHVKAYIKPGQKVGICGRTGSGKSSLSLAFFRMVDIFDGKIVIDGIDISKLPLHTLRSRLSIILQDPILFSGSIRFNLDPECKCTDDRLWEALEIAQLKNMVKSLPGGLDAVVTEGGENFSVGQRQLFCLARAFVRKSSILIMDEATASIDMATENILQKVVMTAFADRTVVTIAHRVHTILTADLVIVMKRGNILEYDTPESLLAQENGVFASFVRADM
T2 sequence (Q15842 whole entry partner, species assumed): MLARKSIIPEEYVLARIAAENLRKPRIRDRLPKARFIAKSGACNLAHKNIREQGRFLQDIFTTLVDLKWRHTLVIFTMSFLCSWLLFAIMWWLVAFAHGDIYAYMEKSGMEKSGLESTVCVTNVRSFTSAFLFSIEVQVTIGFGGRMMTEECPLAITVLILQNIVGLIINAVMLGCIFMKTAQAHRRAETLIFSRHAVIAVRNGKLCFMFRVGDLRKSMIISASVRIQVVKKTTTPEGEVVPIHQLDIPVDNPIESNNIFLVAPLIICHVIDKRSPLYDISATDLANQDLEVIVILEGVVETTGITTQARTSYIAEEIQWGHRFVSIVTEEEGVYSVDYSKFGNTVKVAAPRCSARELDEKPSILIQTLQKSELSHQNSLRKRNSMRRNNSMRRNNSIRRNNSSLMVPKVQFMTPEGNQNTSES

- IC50 [2]: > 30 µM
- IC50 ([3]; Table 1 selectivity profile, read-out: IC50 Kir6.1/SUR2B): 110 nM
- IC50 ([3]; pinacidil-activated, read-out: Kir6.1/SUR2B IC50): 104 nM
- IC50 ([3]; transfected HEK-293 cells, pinacidil activation, read-out: Kir6.1/SUR2B IC50 (Fig. 4C)): 129 nM
- IC50 [4]: > 30 µM
- IC50 [5]: > 30 µM
SMILES: Cc1nc(-c2cccs2)sc1CNC(=O)Nc1cccs1 [VU0542270]
- inhibition of channels containing SUR1 [1]: not channels containing SUR1

From publication PMC10877733, “Discovery and Characterization of VU0542270, the First Selective Inhibitor of Vascular Kir6.1/SUR2B KATP Channels” (Molecular Pharmacology, 2024)
